Source: publication PMC8020795 (Proceedings of the National Academy of Sciences of the …, 2021)

Experiments:
[1] = Pharmacokinetics after SC administration; details: 6 mg/kg
Method: Pharmacokinetics and toxicological studies
Male C57BL/6 mice, each weighing 23.4–25.4 g, were quarantined for 1 week before drug treatment. Compounds dissolved in 100% saline were individually given to mice (n = 3) subcutaneously (6 mg/kg; nonfasted mice). Blood samples were collected via cardiac puncture at defined time points (0 (immediately before dosing), 0.03, 0.08, 0.25, 0.5, 1, 2, and 4 h after dosing) and then stored at −80 °C. The volume of the dosing solution given was 100 µL for each mouse. The plasma samples were analyzed by liquid chromatography– tandem mass spectrometry (LC–MS/MS), and the data were calculated by a standard noncompartmental method using the Kinetica software program (InnaPhase). […]

[2] = Metabolic stability in liver microsomes; format: in vitro ADME; details: mouse, rat, dog, and human
Description: Figure S4. The metabolic stabilities of BPRCX807 in liver microsomes. BPRCX807 is […]

hERG (human K+ channel) = target: T1, hERG (human K+ channel) (Homo sapiens, UniProt Q12809); assay: hERG patch-clamp assay (hERG-CHO, automated patch-clamp); format: cell-based
T1 construct: host or cells: CHO (hERG-CHO)
T1 sequence (Q12809 whole entry): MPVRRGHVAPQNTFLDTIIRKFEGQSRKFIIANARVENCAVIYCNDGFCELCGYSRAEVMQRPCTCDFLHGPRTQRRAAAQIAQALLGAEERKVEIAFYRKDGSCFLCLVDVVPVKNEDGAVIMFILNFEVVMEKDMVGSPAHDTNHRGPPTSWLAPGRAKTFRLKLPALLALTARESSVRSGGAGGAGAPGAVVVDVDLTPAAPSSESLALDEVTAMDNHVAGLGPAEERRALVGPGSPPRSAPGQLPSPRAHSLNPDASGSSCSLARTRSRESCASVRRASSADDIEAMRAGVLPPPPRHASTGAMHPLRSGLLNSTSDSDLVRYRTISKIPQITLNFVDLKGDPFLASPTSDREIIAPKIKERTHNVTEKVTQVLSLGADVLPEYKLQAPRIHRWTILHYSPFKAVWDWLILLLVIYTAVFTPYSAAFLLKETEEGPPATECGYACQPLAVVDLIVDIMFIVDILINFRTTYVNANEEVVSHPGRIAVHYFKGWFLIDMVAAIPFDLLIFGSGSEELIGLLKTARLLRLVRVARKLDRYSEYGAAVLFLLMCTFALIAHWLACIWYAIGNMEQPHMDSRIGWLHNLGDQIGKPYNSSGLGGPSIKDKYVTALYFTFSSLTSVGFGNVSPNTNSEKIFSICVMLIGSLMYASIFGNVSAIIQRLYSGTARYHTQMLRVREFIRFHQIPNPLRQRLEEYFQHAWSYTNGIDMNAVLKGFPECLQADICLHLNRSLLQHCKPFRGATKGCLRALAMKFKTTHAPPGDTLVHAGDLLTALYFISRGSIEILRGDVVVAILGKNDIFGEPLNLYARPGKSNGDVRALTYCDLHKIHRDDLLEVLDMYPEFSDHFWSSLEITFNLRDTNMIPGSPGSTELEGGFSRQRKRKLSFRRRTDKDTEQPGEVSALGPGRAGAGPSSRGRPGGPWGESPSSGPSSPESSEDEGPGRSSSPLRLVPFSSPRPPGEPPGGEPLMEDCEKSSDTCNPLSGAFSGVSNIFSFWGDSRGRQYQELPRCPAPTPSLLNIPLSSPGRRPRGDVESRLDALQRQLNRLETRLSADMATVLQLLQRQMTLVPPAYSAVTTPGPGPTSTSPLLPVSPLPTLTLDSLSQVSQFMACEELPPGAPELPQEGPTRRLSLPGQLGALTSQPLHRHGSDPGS
Description: page 16: Table: List of genes examined by real-time PCR and the primer sequences used. Genes Forward primers Reverse primers Slug [NT] Fn1 [NT] Cdh2 […] Foxc2 [NT] Zeb1 [NT] Zeb2 [NT] Twist1 [NT] Cdh1 [NT] Mta3 [NT] Cldn3 [NT] Cldn5 [NT] β-actin […] [NT] Off-target standard assays Methods employed in this study have been adapted from the scientific literature to maximize reliability and reproducibility. Reference standards were run as an integral part of each assay to ensure the validity of the results obtained. Radioligand binding Assays were performed under conditions described in the accompanying "Methods" section of this report by Eurofins Panlabs, Inc (Taipei, Taiwan, ROC). hERG patch-clamp assay BPRCX807 were tested in the hERG (hERG-CHO, automated patch-clamp) assay and determined at Eurofins Panlabs (Missouri, USA). The experiment was accepted in accordance with Eurofins validation Standard Operating Procedure. Selectivity Screening of various chemokine receptors The results were performed by Eurofins DiscoverX (Fremont, California, USA). The S15

orthotopic HCA-1 tumors = assay: Orthotopic HCA-1 HCC model; format: in vivo, C3H mice; details: treatment alone; for Effect on tumor growth: 15 mg/kg/d SC minipump 14 d
Method: (§1) In vivo hepatocellular carcinoma treatment studies […]
(§2) mouse PD-1 (200 µg/mouse; BioXcell, BE0146). The therapeutic efficacy and the changes in immune cells were analyzed after two weeks of treatment. The tumor volume was calculated with the following formula: volume = width × length × height/2. […]
Hematoxylin and Eosin staining
Lung tissue was cut into small pieces and fixed in 4% PFA (in PBS) overnight before being embedded in paraffin wax. The sections were then stained with hematoxylin and eosin (H&E) and observed with an inverted microscope (IX83, Olympus, Japan).
HCA-1 tumor-bearing mice were anesthetized, perfused via intracardiac injection with PBS and then sacrificed. Tumor tissues were collected and harvested in enzyme-containing DMEM cell culture medium (1.5 mg/mL of collagenase type 1A and hyaluronidase; Sigma).
The tissues were cut and ground into smaller pieces and then digested for 1 h at 37 °C to form suspensions of single tumor cells. The suspensions were filtered through a 70-µm cell strainer (Corning, Manassas, VA), and the cells were then incubated with rat anti-mouse CD16/CD32 mAbs to block Fc receptors. After washing 3 times and resuspending in cold flow buffer (1% BSA, 0.1% NaN3 in PBS), the single-cell suspensions were incubated with monoclonal anti-mouse F4/80-PE (eBiosciences, San Diego, CA), 7-AAD, CD3e-APC, CD8a-PE-Cy7, CD45-FITC, CD4-PE (BD Biosciences, East Rutherford, NJ), CD86-APC-

orthotopic JHH-7 tumors = assay: Orthotopic JHH-7 HCC model; format: in vivo, nude mice; details: treatment alone, 15 mg/kg/d SC minipump 14 d
Method: as §1, §2

[3] = SC, mice, n = 3
HCA-1 cells = assay: Western blot of phospho-ERK and phospho-AKT after CXCL12 stimulation; format: cell-based, murine
Method: (§3) Western blotting was conducted by following standard procedures. HCA-1 or JHH-7 cells (10^5 cells per well) were seeded in 12-well plates (Costar, IL), incubated for 12 h and […]
(§4) containing (100 ng/mL) serum-free medium. After 24 h, the cells were lysed in RIPA buffer on ice for 30 min, and samples were collected and loaded with 4× Laemmli Sample buffer (Bio-Rad, Hercules, CA). The samples were separated on a 10% SDS-PAGE gels and transferred to PVDF membranes. After blocking with skim milk for 1 h, the membranes were incubated at 4°C overnight with primary antibodies against p -AKT, AKT, p-ERK, ERK (Cell Signaling, Danvers, MA) or β-actin (Sigma-Aldrich, St. Louis, MO) before incubation with HRP-conjugated secondary antibodies (Antibodies Inc., Davis, CA) for 1 h. […]
(§5) Total RNA was extracted from HCA-1 cells using the RNeasy Mini Kit (Qiagen, CA, USA). cDNAs were synthesized using the High-Capicity cDNA Reverse Transcription Kit […]
(§6) Biosystems, CA, USA) on a QPCR System. The comparative threshold cycle method was used to calculate fold change in gene expression, which was normalized to β-actin as a […]

JHH-7 cells = assay: as above; format: cell-based, human
Method: as §3, §4, §5, §6

CXCR4 = CXCR4 (Homo sapiens, UniProt P61073); parameters: expressed in transfected cells; host or cells: HEK293T; details: screening hit; read-out: IC50 (binding affinity toward CXCR4 receptors); cited from earlier work
Sequence of CXCR4 (P61073 whole entry): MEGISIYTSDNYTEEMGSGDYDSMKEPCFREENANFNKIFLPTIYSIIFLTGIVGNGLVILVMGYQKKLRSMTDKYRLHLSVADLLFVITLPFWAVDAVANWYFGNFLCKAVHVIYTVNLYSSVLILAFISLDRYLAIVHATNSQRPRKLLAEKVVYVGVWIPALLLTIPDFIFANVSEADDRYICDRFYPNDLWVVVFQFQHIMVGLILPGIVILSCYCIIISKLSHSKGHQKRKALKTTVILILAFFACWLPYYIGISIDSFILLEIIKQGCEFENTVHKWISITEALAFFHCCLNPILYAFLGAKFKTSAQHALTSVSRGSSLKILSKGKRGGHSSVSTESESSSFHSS

[4] = male, C57BL/6, mouse, in vivo, sc

c1cc(CN2CCCNCCNCCCNCC2)ccc1CN1CCCNCCNCCCNCC1 [AMD3100, reference compound]
AUC0–4 h ([1]; SC, mice, n = 3): 7,152 ± 135 ng/mL·h
Cmax [1, 4]: 6200 ng/mL
half-life [1, 4]: 1 h
Metabolic stability in liver microsomes [2]: Stable
IC50 (hERG (human K+ channel)): > 100000 nM
Effect on tumor growth (orthotopic HCA-1 tumors): no significant effect on tumor growth
Lung metastasis (number of lung nodules) (orthotopic HCA-1 tumors; day 24): reduced
Effect on tumor growth (orthotopic JHH-7 tumors): no significant effect on tumor growth
Maximum tolerated dose [3]: 15 mg/kg

NCCCCN(Cc1nc2ccccc2[nH]1)[C@H]1CCCc2cccnc21 [AMD11070, reference compound]
CXCL12-mediated cell signaling (phospho-ERK, phospho-AKT) (HCA-1 cells): moderately inhibited
CXCL12-mediated cell signaling (phospho-ERK, phospho-AKT) (JHH-7 cells): moderately inhibited

Cc1cc(NC2CCN(C(=O)CCNCC(=O)O)CC2)nc(NCc2cn(CCCNCCCNC3CCCCC3)nn2)n1 [BPRCX714, reference compound]
Effect on tumor growth (orthotopic HCA-1 tumors): no significant effect on tumor growth
Effect on tumor growth (orthotopic JHH-7 tumors): no significant effect on tumor growth

CCN(CC)CCCC(C)Nc1cc(/C=C/c2ccc([N+](=O)[O-])cc2)nc2cc(OC)ccc12 (centres unmarked) [CSV18742]
IC50 (CXCR4): 2130 ± 110 nM

CNC(=O)c1cc(Oc2ccc(NC(=O)Nc3ccc(Cl)c(C(F)(F)F)c3)cc2)ccn1 [sorafenib, reference compound]
F4/80+ TAMs infiltration into tumor (flow cytometry) (orthotopic HCA-1 tumors): substantially increased
Intratumoral mean vessel density (MVD, CD31+ staining) (orthotopic HCA-1 tumors; day 24): significantly decrease intratumoral MVD
Lung metastasis (number of lung nodules) (orthotopic HCA-1 tumors; day 24): barely reduced
